Data reported in article PMC10484922, “Discovery of a selective and biologically active low-molecular weight antagonist of human interleukin-1β” (Nature Communications, 2023).
Values joined by “and” are separate entries in the source; they are usually repeats but may differ in a detail not shown here. Equal values may be shown once. “Also recorded” adds a separate entry of the source. Read-outs that look alike come from different tables or passages of the source.

Columns and labels:
[1] = system: CHO IL-1R1 reporter cell line stimulated with IL-1β; experiment: NanoBiT reporter assay, CHO IL-1R1 cells, IL-1β driven; type: cell-based; parameters: average: scale not given here; settings: for average: IL-1beta
Protocol: (§1) Reporter cell system for NanoBiT assay
(§2) CHO IL-36R or CHO IL-1R1 reporter cell lines, prepared internally (Klemens Ka u p ma n n ), based on tagged IL-1RAcP and Myd88 proteins using the NanoBiT complementation system, were seeded at a densi ty of 10’000 cells/well in 30 µL of OptiMEM + 0.1 % FCS medium using 384-well plates (white, TCT), for 24 hours.
(§3) Before the treatment, the medium was removed, 20 µL of NanoGlo substrate, (#N2012, Pr o me g a ) were added to the wells. Following substrate addi ti on, 240 nL of compound were added to the wells using an ECH O dispenser device. Then, 3.76 µL of the ligand IL-36g (Novartis) at 200 ng/mL end concentration or recombinant IL-1b (Novartis) at 500 pg/mL end concentration were added to the mix. Luminescence was measured at 405 nm after 30 min incubation (Pherastar reader). […]

[2] = system: HEK-Blue IL-1β cells stimulated with hIL-1β; experiment: HEK293 reporter gene assay, hIL-1β as trigger; type: cell-based, human; parameters: RGA HEK293, average / RGA HEK293, curve fit: unit not given here; settings: for RGA HEK293, average / RGA HEK293, curve fit: per experiment
Protocol: (§4) We used HEK-Blue™ IL-1β cells that respond specifically to IL-1 (# hkb-il1b, InvivoGen). These cells can detect IL-1α and IL-1β, as these cytokines bind to the same receptor, IL-1R1. They express a Seap reporter gene under the control of the IFN-β minimal promoter fused to five NF-kappaB and five AP-1 binding sites. Thirty microliters (300,000 cells/ml) per well of a 384-well plate were plated overnight. Cells were then stimulated with graded concentrations of cytokines (hIL-1α or hIL-1β) in the absence or presence of canakinumab (Ilaris®, ILARI LYVI 150MG 22GLW.012, batch U003 0409)[22], anakinra (Kineret®, 100 mg/0.67 ml injectable solution, Sobi)[23], or compound (S)-2 (compounds were pre-mixed for 1 h with the cytokine prior to addition to cells) and further incubated overnight before assessment of Seap activity.

[3] = system: HEK-Blue IL-1β cells stimulated with hIL-1α; experiment: HEK293 reporter gene assay, hIL-1α as trigger; type: cell-based, human
Protocol: as §4

[4] = system: CHO IL-36R reporter cell line stimulated with IL-36γ; experiment: NanoBiT reporter assay, CHO IL-36R cells, IL-36γ driven; type: cell-based; parameters: average: scale not given here
Protocol: as §1, §2, §3

## Cc1ccc2c(c1)NC(=O)[C@@]2(c1cn[nH]c1)c1cc(-c2ccc(C(=O)O)cc2C(=O)O)ccc1O [Compound (S)-2]
[1]
  IL-1β-driven NanoBiT reporter activity: inhibited the reporter activity driven
[1]; EXP1, conc 0.00610352 uM
  average: -2.539
[1]; EXP1, conc 0.012207 uM
  average: 1.596
[1]; EXP1, conc 0.0244141 uM
  average: -3.451
[1]; EXP1, conc 0.0488281 uM
  average: 3.112
[1]; EXP1, conc 0.0976562 uM
  average: 2.615
[1]; EXP1, conc 0.195312 uM
  average: -0.4746
[1]; EXP1, conc 0.390625 uM
  average: 9.543
[1]; EXP1, conc 0.78125 uM
  average: 7.593
[1]; EXP1, conc 1.5625 uM
  average: 13.469
[1]; EXP1, conc 3.125 uM
  average: 26.7566
[1]; EXP1, conc 6.25 uM
  average: 37.1219
[1]; EXP1, conc 12.5 uM
  average: 46.91
[1]; EXP1, conc 25 uM
  average: 52.2595
[1]; EXP1, conc 50 uM
  average: 56.8016
[1]; EXP1, conc 100 uM
  average: 68.8694
[1]; EXP2, conc 0.00610352 uM
  average: -2.716
[1]; EXP2, conc 0.012207 uM
  average: 3.9057
[1]; EXP2, conc 0.0244141 uM
  average: -3.335
[1]; EXP2, conc 0.0488281 uM
  average: 6.501
[1]; EXP2, conc 0.0976562 uM
  average: 5.016
[1]; EXP2, conc 0.195312 uM
  average: 1.522
[1]; EXP2, conc 0.390625 uM
  average: 11.9124
[1]; EXP2, conc 0.78125 uM
  average: 10.8854
[1]; EXP2, conc 1.5625 uM
  average: 17.5198
[1]; EXP2, conc 3.125 uM
  average: 31.5581
[1]; EXP2, conc 6.25 uM
  average: 41.289
[1]; EXP2, conc 12.5 uM
  average: 51.7241
[1]; EXP2, conc 25 uM
  average: 56.0031
[1]; EXP2, conc 50 uM
  average: 59.3287
[1]; EXP2, conc 100 uM
  average: 71.2739
[1]; EXP3, conc 0.00610352 uM
  average: 1.19
[1]; EXP3, conc 0.012207 uM
  average: 3.77
[1]; EXP3, conc 0.0244141 uM
  average: 3.912
[1]; EXP3, conc 0.0488281 uM
  average: 4.68
[1]; EXP3, conc 0.0976562 uM
  average: -1.021
[1]; EXP3, conc 0.195312 uM
  average: 3.354
[1]; EXP3, conc 0.390625 uM
  average: 4.389
[1]; EXP3, conc 0.78125 uM
  average: 9.349
[1]; EXP3, conc 1.5625 uM
  average: 13.3994
[1]; EXP3, conc 3.125 uM
  average: 22.0107
[1]; EXP3, conc 6.25 uM
  average: 30.3621
[1]; EXP3, conc 12.5 uM
  average: 43.476
[1]; EXP3, conc 25 uM
  average: 49.8685
[1]; EXP3, conc 50 uM
  average: 57.8931
[1]; EXP3, conc 100 uM
  average: 64.0514
[2]
  reporter activity induced by hIL-1β: efficiently inhibited the reporter activity induced by hIL-1β
[2]; 3.125 uM
  RGA HEK293, average: 29.4705 and 28.9635 and 25.1151 and 32.9049 and 27.4138 and 39.0499 and 38.2996 and 37.0235
  RGA HEK293, curve fit: 30.4654 and 27.1823 and 20.8299 and 28.629 and 26.4966 and 33.5898 and 33.5814 and 32.8647
[2]; 6.25 uM
  RGA HEK293, average: 54.0943 and 50.2167 and 45.7315 and 52.6564 and 46.7509 and 54.9517 and 53.8737 and 52.9197
  RGA HEK293, curve fit: 53.4932 and 49.1303 and 45.443 and 53.6627 and 46.4685 and 55.6955 and 53.7771 and 53.2389
[2]; 12.5 uM
  RGA HEK293, average: 72.3524 and 70.9823 and 68.0128 and 77.9349 and 67.4822 and 74.7182 and 71.0369 and 70.438
  RGA HEK293, curve fit: 72.9412 and 71.3657 and 68.2903 and 76.9195 and 67.593 and 75.1363 and 72.2128 and 71.5012
[2]; 25 uM
  RGA HEK293, average: 87.2975 and 85.2654 and 82.5363 and 87.9606 and 82.8729 and 86.3527 and 84.3067 and 83.9822
  RGA HEK293, curve fit: 85.8483 and 86.5666 and 83.9461 and 90.5811 and 83.387 and 87.7879 and 85.1743 and 84.4134
[2]; 50 uM
  RGA HEK293, average: 94.5457 and 94.2398 and 91.9589 and 95.03 and 93.0282 and 93.3172 and 89.9086 and 89.6999
  RGA HEK293, curve fit: 93.0784 and 94.3616 and 92.5512 and 96.5403 and 92.3805 and 94.467 and 92.6851 and 92.0672
[2]; 100 uM
  RGA HEK293, average: 97.772 and 97.6887 and 95.147 and 97.9006 and 96.9482 and 94.6055 and 95.59 and 95.4988
  RGA HEK293, curve fit: 96.7406 and 97.7627 and 96.7045 and 98.7877 and 96.7132 and 97.5984 and 96.5496 and 96.1302
[2]; Homo sapiens, hIL-1β, read-out: RGA HEK293 IC50
  IC50: 5.3 ± 0.3 µM
[2]; Homo sapiens, source data, read-out: RGA HEK293 IC50, individual experiments
  IC50: 4.15 µM
[2]; source data, read-out: RGA HEK293 IC50, individual experiments
  IC50: 6.4 µM and 5.37 µM and 5.67 µM and 6.98 µM and 4.84 µM and 5.05 µM and 4.72 µM
[3]
  reporter activity with hIL-1α as trigger: ineffective
[4]
  IL-36γ-driven NanoBiT reporter activity: without effect on IL-36g-driven activity; also recorded: no inhibitory activity
[4]; IL-36, EXP1, conc 0.00610352 uM
  average: -8.032
[4]; IL-36, EXP1, conc 0.012207 uM
  average: -2.7959
[4]; IL-36, EXP1, conc 0.0244141 uM
  average: -4.066
[4]; IL-36, EXP1, conc 0.0488281 uM
  average: -1.337
[4]; IL-36, EXP1, conc 0.0976562 uM
  average: -10.0933
[4]; IL-36, EXP1, conc 0.195312 uM
  average: -6.363
[4]; IL-36, EXP1, conc 0.390625 uM
  average: -11.0347
[4]; IL-36, EXP1, conc 0.78125 uM
  average: -4.52
[4]; IL-36, EXP1, conc 1.5625 uM
  average: -4.793
[4]; IL-36, EXP1, conc 3.125 uM
  average: -8.376
[4]; IL-36, EXP1, conc 6.25 uM
  average: -1.775
[4]; IL-36, EXP1, conc 12.5 uM
  average: -2.393
[4]; IL-36, EXP1, conc 25 uM
  average: -11.2956
[4]; IL-36, EXP1, conc 50 uM
  average: -8.608
[4]; IL-36, EXP1, conc 100 uM
  average: 2.894
[4]; IL-36, EXP2, conc 0.00610352 uM
  average: -0.8565
[4]; IL-36, EXP2, conc 0.012207 uM
  average: -0.8771
[4]; IL-36, EXP2, conc 0.0244141 uM
  average: 16.4182
[4]; IL-36, EXP2, conc 0.0488281 uM
  average: -7.751
[4]; IL-36, EXP2, conc 0.0976562 uM
  average: 10.3597
[4]; IL-36, EXP2, conc 0.195312 uM
  average: 5.839
[4]; IL-36, EXP2, conc 0.390625 uM
  average: 4.392
[4]; IL-36, EXP2, conc 0.78125 uM
  average: 8.396
[4]; IL-36, EXP2, conc 1.5625 uM
  average: 12.4114
[4]; IL-36, EXP2, conc 3.125 uM
  average: 6.063
[4]; IL-36, EXP2, conc 6.25 uM
  average: 0.8781
[4]; IL-36, EXP2, conc 12.5 uM
  average: 10.8339
[4]; IL-36, EXP2, conc 25 uM
  average: 7.445
[4]; IL-36, EXP2, conc 50 uM
  average: 10.4408
[4]; IL-36, EXP2, conc 100 uM
  average: 12.6091
[4]; IL-36, EXP3, conc 0.00610352 uM
  average: 2.096
[4]; IL-36, EXP3, conc 0.012207 uM
  average: -6.441
[4]; IL-36, EXP3, conc 0.0244141 uM
  average: 4.8088
[4]; IL-36, EXP3, conc 0.0488281 uM
  average: -5.951
[4]; IL-36, EXP3, conc 0.0976562 uM
  average: -4.784
[4]; IL-36, EXP3, conc 0.195312 uM
  average: -4.89
[4]; IL-36, EXP3, conc 0.390625 uM
  average: -47.4888
[4]; IL-36, EXP3, conc 0.78125 uM
  average: -7.151
[4]; IL-36, EXP3, conc 1.5625 uM
  average: -6.215
[4]; IL-36, EXP3, conc 3.125 uM
  average: -8.634
[4]; IL-36, EXP3, conc 6.25 uM
  average: -10.5486
[4]; IL-36, EXP3, conc 12.5 uM
  average: -5.26
[4]; IL-36, EXP3, conc 25 uM
  average: -17.1151
[4]; IL-36, EXP3, conc 50 uM
  average: -4.192
[4]; IL-36, EXP3, conc 100 uM
  average: -4.987
